Source: patent US20060069132A1, “Azolecarboxamide herbicides” (priority 2004, published 2006)

Legend:
morningglory [1] = assay: Test A pre-/postemergence herbicide test; type: in vivo, Ipomoea spp.
Summary of the method: (§1)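 Sandy loam soil given preemergence directed spray; plants at 2 to 10 cm, one- to two-leaf stage, sprayed to runoff postemergence, compounds in non-phytotoxic solvent with surfactant. Injury rated visually versus untreated controls after about ten greenhouse days, 0 (no effect) to 100 (complete control); dash means not tested.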

redroot pigweed = assay: Test A pre-/postemergence herbicide test; type: in vivo, Amaranthus retroflexus
Summary of the method: as §1

Surinam grass = assay: Test C pre-/postemergence herbicide test; type: in vivo, Urochloa decumbens; settings: for Plant response rating, Surinam Grass: preemergence; for Surinam Grass plant response rating: Preemergence, 500 g ai/ha, scale 0 to 100, 0 no effect, 100 complete control
Summary of the method: (§2)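 Preemergence: seeds planted and treated with compound in non-phytotoxic solvent with surfactant; postemergence: plants at 2 to 18 cm (1- to 4-leaf stage) sprayed likewise. Kept in greenhouse 12 to 14 days, then visually rated against controls, 0 (no effect) to 100 (complete control).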

cocklebur = assay: Test C pre-/postemergence herbicide test; type: in vivo, Xanthium strumarium; settings: for Plant response rating, Cocklebur: preemergence; for Cocklebur plant response rating: Preemergence, 500 g ai/ha, scale 0 to 100, 0 no effect, 100 complete control
Summary of the method: as §2

corn = assay: Test C pre-/postemergence herbicide test; type: in vivo, Zea mays; settings: for Plant response rating, Corn: preemergence; for Corn plant response rating: Preemergence, 500 g ai/ha, scale 0 to 100, 0 no effect, 100 complete control
Summary of the method: as §2

johnsongrass = assay: Test C pre-/postemergence herbicide test; type: in vivo, Sorghum halepense; settings: for Plant response rating, Johnsongrass: preemergence; for Johnsongrass plant response rating: Preemergence, 500 g ai/ha, scale 0 to 100, 0 no effect, 100 complete control
Summary of the method: as §2

morningglory [2] = assay: Test C pre-/postemergence herbicide test; type: in vivo, Ipomoea coccinea; parameters: key to Plant response rating, Morningglory: 0 = no effect, 100 = complete control; settings: for Plant response rating, Morningglory: preemergence; for Morningglory plant response rating: Preemergence, 500 g ai/ha, scale 0 to 100, 0 no effect, 100 complete control
Summary of the method: as §2

eastern black nightshade = assay: Test C pre-/postemergence herbicide test; type: in vivo, Solanum ptycanthum; settings: for Plant response rating, Nightshade: preemergence; for Nightshade plant response rating: Preemergence, 500 g ai/ha, scale 0 to 100, 0 no effect, 100 complete control
Summary of the method: as §2

pigweed = assay: Test C pre-/postemergence herbicide test; type: in vivo, Amaranthus retroflexus; settings: for Plant response rating, Pigweed: preemergence; for Pigweed plant response rating: Preemergence, 500 g ai/ha, scale 0 to 100, 0 no effect, 100 complete control
Summary of the method: as §2

velvetleaf = assay: Test C pre-/postemergence herbicide test; type: in vivo, Abutilon theophrasti; settings: for Plant response rating, Velvetleaf: preemergence; for Velvetleaf plant response rating: Preemergence, 500 g ai/ha, scale 0 to 100, 0 no effect, 100 complete control
Summary of the method: as §2

[3] = Postemergence, 500 g ai/ha, 0 to 100 scale, 0 no effect, 100 complete control
[4] = Postemergence, 2000 g ai/ha, 0 to 100 scale, 0 no effect, 100 complete control
[5] = Preemergence, 2000 g ai/ha, visual rating, 0 to 100 scale (0 no effect, 100 complete control)
[6] = preemergence, 500 g ai/ha, visual injury, 0 to 100 scale (0 no effect, 100 complete control)
[7] = 125 g ai/ha, scale 0 (no effect) to 100 (complete control), visual, 12 to 14 days

Compound | Morningglory plant response rating (morningglory [1]; [3]) | Plant response rating, Morningglory (morningglory [1]; [4]) | Morningglory plant response rating (morningglory [1]; [5]) | Morningglory plant response rating (morningglory [1]; [6]) | Pigweed plant response rating (redroot pigweed; [3]) | Plant response rating, Pigweed (redroot pigweed; [4]) | Pigweed plant response rating (redroot pigweed; [5]) | Pigweed plant response rating (redroot pigweed; [6]) | Plant response rating, Surinam Grass (Surinam grass; 62 g ai/ha, scale 0 to 100) | Plant response rating, Surinam Grass (Surinam grass; [7]) | Plant response rating, Surinam Grass (Surinam grass; 250 g ai/ha, scale 0-100) | Surinam Grass plant response rating (Surinam grass) | Plant response rating, Cocklebur (cocklebur; 62 g ai/ha, scale 0 to 100) | Plant response rating, Cocklebur (cocklebur; [7]) | Plant response rating, Cocklebur (cocklebur; 250 g ai/ha, scale 0-100) | Cocklebur plant response rating (cocklebur) | Plant response rating, Corn (corn; 62 g ai/ha, scale 0 to 100) | Plant response rating, Corn (corn; [7]) | Plant response rating, Corn (corn; 250 g ai/ha, scale 0-100) | Corn plant response rating (corn) | other results
CCNC(=O)c1cccc(NC(=O)c2sc(C(C)(C)C)nc2C)c1 [Compound 198] | 60 | 75 | 85 | 45 | 55 | 75 | 100 | 95 | 0 | 10 | 30 | 100 | 0 | 0 | 0 | 10 | 0 | 0 | 0 | 0 | Plant response rating, Johnsongrass (johnsongrass; 62 g ai/ha, scale 0 to 100): 0; Plant response rating, Johnsongrass (johnsongrass; [7]): 30; Plant response rating, Johnsongrass (johnsongrass; 250 g ai/ha, scale 0-100): 60; Johnsongrass plant response rating (johnsongrass): 95; Plant response rating, Morningglory (morningglory [2]; 62 g ai/ha, scale 0 to 100): 10; Plant response rating, Morningglory (morningglory [2]; [7]): 70; Plant response rating, Morningglory (morningglory [2]; 250 g ai/ha, scale 0-100): 85; Morningglory plant response rating (morningglory [2]): 85; Plant response rating, Nightshade (eastern black nightshade; 62 g ai/ha, scale 0 to 100): 90; Plant response rating, Nightshade (eastern black nightshade; [7]): 95; Plant response rating, Nightshade (eastern black nightshade; 250 g ai/ha, scale 0-100): 100; Nightshade plant response rating (eastern black nightshade): 100; Plant response rating, Pigweed (pigweed; 62 g ai/ha, scale 0 to 100): 100; Plant response rating, Pigweed (pigweed; [7]): 100; Plant response rating, Pigweed (pigweed; 250 g ai/ha, scale 0-100): 100; Pigweed plant response rating (pigweed): 100; Plant response rating, Velvetleaf (velvetleaf; 62 g ai/ha, scale 0 to 100): 5; Plant response rating, Velvetleaf (velvetleaf; [7]): 80; Plant response rating, Velvetleaf (velvetleaf; 250 g ai/ha, scale 0-100): 80; Velvetleaf plant response rating (velvetleaf): 100
C=CCNC(=O)c1cccc(NC(=O)c2sc(C(C)(C)C)nc2CC)c1 [Compound 207] | 20 | 15 | 85 | 35 | 30 | 45 | 100 | 100 | 0 | 0 | 0 | 10 | 0 | 0 | 0 | 0 | 0 | 0 | 5 | 20 | Plant response rating, Johnsongrass (johnsongrass; 62 g ai/ha, scale 0 to 100): 0; Plant response rating, Johnsongrass (johnsongrass; [7]): 10; Plant response rating, Johnsongrass (johnsongrass; 250 g ai/ha, scale 0-100): 40; Johnsongrass plant response rating (johnsongrass): 50; Plant response rating, Morningglory (morningglory [2]; 62 g ai/ha, scale 0 to 100): 0; Plant response rating, Morningglory (morningglory [2]; [7]): 0; Plant response rating, Morningglory (morningglory [2]; 250 g ai/ha, scale 0-100): 0; Morningglory plant response rating (morningglory [2]): 0; Plant response rating, Nightshade (eastern black nightshade; 62 g ai/ha, scale 0 to 100): 60; Plant response rating, Nightshade (eastern black nightshade; [7]): 75; Plant response rating, Nightshade (eastern black nightshade; 250 g ai/ha, scale 0-100): 100; Nightshade plant response rating (eastern black nightshade): 100; Plant response rating, Pigweed (pigweed; 62 g ai/ha, scale 0 to 100): 100; Plant response rating, Pigweed (pigweed; [7]): 100; Plant response rating, Pigweed (pigweed; 250 g ai/ha, scale 0-100): 100; Pigweed plant response rating (pigweed): 100; Plant response rating, Velvetleaf (velvetleaf; 62 g ai/ha, scale 0 to 100): 0; Plant response rating, Velvetleaf (velvetleaf; [7]): 10; Plant response rating, Velvetleaf (velvetleaf; 250 g ai/ha, scale 0-100): 40; Velvetleaf plant response rating (velvetleaf): 60
